According to patent US8022061B2, “N-aryl pyrazole compounds, compositions, and methods for their use” (Amgen Inc., priority 2006, dated 2011):

test system: ob/ob mice; experiment: Increase of circulating insulin concentrations in treated ob/ob mice; assay type: in vivo; details: male ob/ob mice, dose 10 mg/kg p.o., 10 minutes after dosing, relative to control group
Protocol: The results presented below exemplify that administration of the compounds as provided herein to an art-recognized animal model of human diabetes can lead to increased circulating insulin concentrations in the animal model.
Male ob/ob mice were weighed and bled from tail vein, and blood glucose levels were determined with a glucometer. Animals were placed into control and treatment groups having similar averages of glucose levels and body weights. In the morning of the following day, animals were dosed with vehicle (control group) or test article (5 ml/kg, p.o.). Blood samples were collected just before and 10 minutes after dosing, and the samples were assayed for insulin and glucose concentrations.
Table 1 provides exemplary data showing the increase of circulating insulin concentrations (expressed as ng/ml) in treated mice relative to control group at 10 minutes after dosing the treated mice. Concentrations of the exemplary compound tested in the mice are provided in the righthand column.

Compared with `CCCCc1c(C(=O)NCc2c(C)ncn2CC(=O)NC)cnn1-c1ncc(C)c(-c2cccs2)n1` [5-Butyl-N-({4-methyl-1-[2-(methylamino)-2-oxoethyl]-1H-imidazol-5-yl}methyl)-1-[5-methyl-4-(2-thienyl)pyrimidin-2-yl]-1H-pyrazole-4-carboxamide], `CCCCc1c(C(=O)NCc2c(C)ncn2CC(N)=O)cnn1-c1ncc(C)c(-c2cccs2)n1` [N-{[1-(2-Amino-2-oxoethyl)-4-methyl-1H-imidazol-5-yl]methyl}-5-butyl-1-[5-methyl-4-(2-thienyl)pyrimidin-2-yl]-1H-pyrazole-4-carboxamide] is 2.2-fold lower in “Increase in Insulin” value: 9 ng/mL for the first, 4 ng/mL for the second.

`CCCCc1c(C(=O)NC(C)c2cncn2C)cnn1-c1ncc(C)c(-c2cccs2)n1` (centres unmarked) [5-Butyl-N-[1-(1-methyl-1H-imidazol-5-yl)ethyl]-1-[5-methyl-4-(2-thienyl)pyrimidin-2-yl]-1H-pyrazole-4-carboxamide] and `CCCCc1c(C(=O)NC(CO)c2cncn2C)cnn1-c1ncc(C)c(-c2cccs2)n1` (centres unmarked) [5-Butyl-N-[2-hydroxy-1-(1-methyl-1H-imidazol-5-yl)ethyl]-1-[5-methyl-4-(2-thienyl)pyrimidin-2-yl]-1H-pyrazole-4-carboxamide] are within 1.5-fold of each other in “Increase in Insulin” value: 6.4 ng/mL for the first, 5.2 ng/mL for the second.

First: CCCCc1c(C(=O)NCCn2ccnc2)cnn1-c1ncc(C)c(-c2cccs2)n1 [5-Butyl-N-[2-(1H-imidazol-1-yl)ethyl]-1-[5-methyl-4-(2-thienyl)pyrimidin-2-yl]-1H-pyrazole-4-carboxamide]
Second: CCCCc1c(C(=O)NCCn2cncc2C(=O)OC)cnn1-c1ncc(C)c(-c2cccs2)n1 [Methyl 1-{2-[({5-butyl-1-[5-methyl-4-(2-thienyl)pyrimidin-2-yl]-1H-pyrazol-4-yl}carbonyl)amino]ethyl}-1H-imidazole-5-carboxylate]
The “Increase in Insulin” value of the first is 2.3-fold lower: 2.9 ng/mL for the first, 6.6 ng/mL for the second.

First: CCCCc1c(C(=O)NCc2c(C)ncn2CC(=O)O)cnn1-c1ncc(Br)c(NC2CCC2)n1 [(5-{[({1-[5-Bromo-4-(cyclobutylamino)pyrimidin-2-yl]-5-butyl-1H-pyrazol-4-yl}carbonyl)amino]methyl}-4-methyl-1H-imidazol-1-yl)acetic acid]
Second: CCCCc1c(C(=O)NCc2cncn2CC(=O)O)cnn1-c1ncc(C)c(-c2cccs2)n1 [(5-{[({5-Butyl-1-[5-methyl-4-(2-thienyl)pyrimidin-2-yl]-1H-pyrazol-4-yl}carbonyl)amino]methyl}-1H-imidazol-1-yl)acetic acid]
The “Increase in Insulin” value of the first is 2.2-fold lower: 1.7 ng/mL for the first, 3.8 ng/mL for the second.

Compared with `CCCCc1c(C(=O)NCc2cncn2CC(=O)OC)cnn1-c1ncc(C)c(-c2cccs2)n1` [Methyl (5-{[({5-butyl-1-[5-methyl-4-(2-thienyl)pyrimidin-2-yl]-1H-pyrazol-4-yl}carbonyl)amino]methyl}-1H-imidazol-1-yl)acetate], `CCCc1c(C(=O)NCCc2cncn2C)cnn1-c1ncc(C)c(-c2cccs2)n1` [N-[2-(1-Methyl-1H-imidazol-5-yl)ethyl]-1-[5-methyl-4-(2-thienyl)pyrimidin-2-yl]-5-propyl-1H-pyrazole-4-carboxamide] is 2.2-fold higher in “Increase in Insulin” value: 4.3 ng/mL for the first, 9.5 ng/mL for the second.

Going from `CCCCc1c(C(=O)Nc2cccc3nc[nH]c23)cnn1-c1ncc(C)c(-c2cccs2)n1` [N-1H-Benzimidazol-7-yl-5-butyl-1-[5-methyl-4-(2-thienyl)pyrimidin-2-yl]-1H-pyrazole-4-carboxamide] to `CCCCc1c(C(=O)N[C@@H](Cc2c[nH]cn2)C(=O)O)cnn1-c1ncc(C)c(-c2cccs2)n1` [N-({5-Butyl-1-[5-methyl-4-(2-thienyl)pyrimidin-2-yl]-1H-pyrazol-4-yl}carbonyl)-L-histidine], the “Increase in Insulin” value rises from 0.9 ng/mL to 4.5 ng/mL (5-fold).

`COCc1c(C(=O)NCc2cnc3ccccn23)cnn1-c1ncc(C)c(-c2cccs2)n1` [N-(Imidazo[1,2-a]pyridin-3-ylmethyl)-5-(methoxymethyl)-1-[5-methyl-4-(2-thienyl)pyrimidin-2-yl]-1H-pyrazole-4-carboxamide] and `CCCc1c(C(=O)NC(CO)c2cncn2C)cnn1-c1ncc(C)c(-c2cccs2)n1` (centres unmarked) [N-[2-Hydroxy-1-(1-methyl-1H-imidazol-5-yl)ethyl]-1-[5-methyl-4-(2-thienyl)pyrimidin-2-yl]-5-propyl-1H-pyrazole-4-carboxamide] are within 1.5-fold of each other in “Increase in Insulin” value: 4.4 ng/mL for the first, 3.1 ng/mL for the second.

same assay, conditions: male ob/ob mice, dose 30 mg/kg p.o., 10 minutes after dosing, relative to control group

`CCCc1c(C(=O)NCc2cncn2C)cnn1-c1ncc(C)c(-c2cccs2)n1` [N-[(1-Methyl-1H-imidazol-5-yl)methyl]-1-[5-methyl-4-(2-thienyl)pyrimidin-2-yl]-5-propyl-1H-pyrazole-4-carboxamide] was tested, and the “Increase in Insulin” value was 28.5 ng/mL.

test system: C57B6 mice; experiment: Glucose lowering effect after oral glucose challenge in C57B6 mice; assay type: in vivo; details: male C57B6 mice, p.o. 30 minutes before oral glucose 3 g/kg; blood glucose before, 20 and 50 minutes after challenge; relative to control group
Protocol: The following example describes the glucose lowering effect of compounds observed in vivo.
Male C57B6 mice were placed into control and treatment groups having similar averages of body weights. Then, animals were dosed with vehicle (control group) or test article (5 ml/kg, p.o.). Thirty minutes after dosing, glucose (3 g/kg) was orally administered in each animal. Blood samples were collected just before, 20 minutes and 50 minutes after glucose challenge and glucose concentrations in the samples was assessed. The values in Table 2 represent the observed % AUC reduction of blood glucose in the treated animals relative to the control group.

Compared with `CCOCc1c(C(=O)NCc2c(CO)ncn2C)cnn1-c1ncc(C)c(N2CCc3ccccc3C2)n1` [1-[4-(3,4-Dihydroisoquinolin-2(1H)-yl)-5-methylpyrimidin-2-yl]-5-(ethoxymethyl)-N-{[4-(hydroxymethyl)-1-methyl-1H-imidazol-5-yl]methyl}-1H-pyrazole-4-carboxamide], `CCOCc1c(C(=O)NCc2c(CO)ncn2C)cnn1-c1ncc(Cl)c(-c2cccs2)n1` [1-[5-Chloro-4-(2-thienyl)pyrimidin-2-yl]-5-(ethoxymethyl)-N-{[4-(hydroxymethyl)-1-methyl-1H-imidazol-5-yl]methyl}-1H-pyrazole-4-carboxamide] is lower in “% AUC reduction in glucose levels” value: 63% for the first, 41% for the second.

First: COCc1c(C(=O)NCc2c(CO)ncn2C)cnn1-c1ncc(C)c(-c2ccoc2)n1 [1-[4-(3-Furyl)-5-methylpyrimidin-2-yl]-N-[{4-(hydroxymethyl)-1-methyl-1H-imidazol-5-yl]methyl}-5-(methoxymethyl)-1H-pyrazole-4-carboxamide]
Second: CCCc1c(C(=O)NCc2c(CO)ncn2C)cnn1-c1ncc(C)c(-c2ccoc2)n1 [1-[4-(3-Furyl)-5-methylpyrimidin-2-yl]-N-{[4-(hydroxymethyl)-1-methyl-1H-imidazol-5-yl]methyl}-5-propyl-1H-pyrazole-4-carboxamide]
The “% AUC reduction in glucose levels” value of the first is higher: 29% for the first, 19% for the second.

First: CCOCc1c(C(=O)NCc2cncn2C)cnn1-c1ncc(C)c(NC2CCCCC2)n1 [1-[4-(Cyclohexylamino)-5-methylpyrimidin-2-yl]-5-(ethoxymethyl)-N-[(1-methyl-1H-imidazol-5-yl)methyl]-1H-pyrazole-4-carboxamide]
Second: CCOCc1c(C(=O)NCc2cncn2C)cnn1-c1ncc(C)c(-c2ccco2)n1 [5-(Ethoxymethyl)-1-[4-(2-furyl)-5-methylpyrimidin-2-yl]-N-[(1-methyl-1H-imidazol-5-yl)methyl]-1H-pyrazole-4-carboxamide]
The “% AUC reduction in glucose levels” value of the first is lower: 42% for the first, 51% for the second.

Compared with `CCCCc1c(C(=O)NCc2c(C)ncn2C(C)(C)C(=O)O)cnn1-c1ncc(C)c(-c2cccs2)n1` [2-(5-{[({5-Butyl-1-[5-methyl-4-(2-thienyl)pyrimidin-2-yl]-1H-pyrazol-4-yl}carbonyl)amino]methyl}-4-methyl-1H-imidazol-1-yl)-2-methylpropanoic acid], `COCCc1c(C(=O)NCc2cncn2C)cnn1-c1ncc(C)c(-c2cccs2)n1` [5-(2-Methoxyethyl)-N-[(1-methyl-1H-imidazol-5-yl)methyl]-1-[5-methyl-4-(2-thienyl)pyrimidin-2-yl]-1H-pyrazole-4-carboxamide] is higher in “% AUC reduction in glucose levels” value: 15% for the first, 25% for the second.
